Reference: PubChem BioAssay (NCI)
Values joined by “and” are separate entries in the source; they are usually repeats but may differ in a detail not shown here. Equal entries are not always repeated.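 Test compounds were applied to cells in 96-well plates for 48 hours at 5 doses. GI50 marks 50% less growth. TGI: total growth inhibition.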

How the values were obtained:
BT-549 breast = test: growth of human tumour cells (NCI), 48 h
NCI/ADR-RES ovarian = test: growth of human tumour cells (NCI), 48 h

Which results are given for `Cc1cc(-c2ccco2)cc(C)c1/C=C/c1cncc(-c2nn[nH]n2)c1`?
GI50 (BT-549 breast): > 25 µM; TGI (BT-549 breast): > 25 µM; GI50 (NCI/ADR-RES ovarian): > 25000 nM; TGI (NCI/ADR-RES ovarian): > 25 µM

For `CN1CC[C@]23c4c5ccc(O)c4OC2c2[nH]ncc2C[C@H]3[C@H]1C5` (stereo partly drawn), which TGI (BT-549 breast) is on record?
The TGI was > 100 µM.

And the TGI (NCI/ADR-RES ovarian)?
The TGI was > 100 µM.

Which GI50 (BT-549 breast) does the source give for `COC(=O)C1=Nc2ccc(F)cc2/C1=C/c1sc(=S)[nH]c1O` here?
The GI50 was 0.161 µM.

What about the TGI (BT-549 breast) of the same compound?
The TGI was 3.31 µM.

What about the GI50 (NCI/ADR-RES ovarian) of the same compound?
The GI50 was 70.4 nM.

And the TGI (NCI/ADR-RES ovarian)?
The TGI was 11.5 µM.

For `Cc1ccc(-c2nc(C(Cl)Cl)nc3cc(C)nn23)cc1`, which GI50 (BT-549 breast) is on record?
The GI50 was 9.68 µM.

And the TGI (BT-549 breast)?
Its TGI is > 100 µM.

And the GI50 (NCI/ADR-RES ovarian)?
The GI50 was 1180 nM.

What about the TGI (NCI/ADR-RES ovarian) of the same compound?
The TGI was 5.73 µM.

How did the GI50 (BT-549 breast) turn out when `COc1ncc2cc1NS(=O)(=O)c1cccc(c1)C(=O)NCC1=CC=C(S1)c1ncnc3c1SC2=C3C` was run?
Its GI50 is 0.0855 µM.

And the TGI (BT-549 breast)?
Its TGI is 0.505 µM.

What about the GI50 (NCI/ADR-RES ovarian) of the same compound?
The GI50 was 542 nM.

What about the TGI (NCI/ADR-RES ovarian) of the same compound?
The TGI was 9.63 µM.

With `CCN(CC)C(=O)CCCCCn1c2ccccc2c2c3c(c4c5ccccc5[nH]c4c21)C(=O)N(O)C3=O` as the compound, how does the GI50 (BT-549 breast) read?
The GI50 was 4.66 µM.

And the TGI (BT-549 breast)?
Its TGI is 48.5 µM.

And the GI50 (NCI/ADR-RES ovarian)?
The GI50 was 3400 nM.

What about the TGI (NCI/ADR-RES ovarian) of the same compound?
Its TGI is > 100 µM.

With `O=CC(O)C(O)C(OC1OC(CO)C(O)C(O)C1O)C(O)CO` (stereo not drawn) (tested in a mixture with another compound) as the compound, how does the TGI (NCI/ADR-RES ovarian) read?
The TGI was > 100 µM.

Which GI50 (BT-549 breast) does the source give for `CC(C)C/C(=N\NC(=O)c1ccncc1)c1cc(Cl)ccc1O` here?
Its GI50 is 0.922 µM.

And the TGI (BT-549 breast)?
The TGI was > 25.6 µM.

And the GI50 (NCI/ADR-RES ovarian)?
Its GI50 is 289 nM.

And the TGI (NCI/ADR-RES ovarian)?
Its TGI is > 23.7 µM.

How did the GI50 (BT-549 breast) turn out when `CCN(CC)Cc1cc(Nc2cc(C(F)(F)F)c(C#N)c3nc4ccccc4n23)ccc1O` was run?
The GI50 was 2.36 µM.

And the TGI (BT-549 breast)?
The TGI was 8.75 µM.

What about the GI50 (NCI/ADR-RES ovarian) of the same compound?
Its GI50 is 2640 nM.

And the TGI (NCI/ADR-RES ovarian)?
Its TGI is 15.9 µM.

Which results are given for `N#Cc1cccc(C2C3=C(COC3=O)N(CCO)c3cc4c(cc32)CCC4)c1` (stereo not drawn)?
GI50 (BT-549 breast): 0.182 µM; TGI (BT-549 breast): 5.35 µM; GI50 (NCI/ADR-RES ovarian): 150 nM; TGI (NCI/ADR-RES ovarian): > 50 µM

For `Oc1ccc(-c2[nH]c3ccccc3c2-c2nc3ccccc3o2)cc1`, which GI50 (BT-549 breast) is on record?
The GI50 was 5.41 µM.

What about the TGI (BT-549 breast) of the same compound?
The TGI was 18.8 µM.

And the GI50 (NCI/ADR-RES ovarian)?
The GI50 was 2630 nM.

What about the TGI (NCI/ADR-RES ovarian) of the same compound?
Its TGI is 9.04 µM.

How did the GI50 (BT-549 breast) turn out when `Cc1ccc(NC2=CC(=O)C(=O)c3ccccc32)c(C)c1` was run?
Its GI50 is 2.17 µM.

What about the TGI (BT-549 breast) of the same compound?
The TGI was 7.2 µM.

What about the GI50 (NCI/ADR-RES ovarian) of the same compound?
The GI50 was 2920 nM.

And the TGI (NCI/ADR-RES ovarian)?
The TGI was 11.8 µM.

How did the GI50 (BT-549 breast) turn out when `O=C(Nc1cccc(-n2cc(-c3ccncc3)c(-c3ccc(O)c(Cl)c3)n2)c1)Nc1ccc(Cl)c(Cl)c1` was run?
Its GI50 is 1.8 µM.

What about the TGI (BT-549 breast) of the same compound?
The TGI was 4.32 µM.

With `Cc1ccc(O)cc1Nc1ccnc2cc(-c3ccccn3)ccc12` as the compound, how does the GI50 (BT-549 breast) read?
The GI50 was 4.9 µM.

And the TGI (BT-549 breast)?
Its TGI is 10.3 µM.

And the GI50 (NCI/ADR-RES ovarian)?
The GI50 was 4490 nM.

What about the TGI (NCI/ADR-RES ovarian) of the same compound?
Its TGI is 15.3 µM.

How did the GI50 (BT-549 breast) turn out when `Cc1cn2c(/C=C3/C(=O)Nc4ccc(C(=O)O)cc43)c(C)nc2s1` was run?
Its GI50 is > 100 µM.

What about the TGI (BT-549 breast) of the same compound?
Its TGI is > 100 µM.

And the GI50 (NCI/ADR-RES ovarian)?
The GI50 was > 100000 nM.

And the TGI (NCI/ADR-RES ovarian)?
Its TGI is > 100 µM.

With `CC1(C)N=C(N)N=C(N)N1c1ccc(OCCCCNC(=O)Nc2cccc(S(=O)(=O)F)c2)c(Cl)c1` as the compound, how does the GI50 (BT-549 breast) read?
The GI50 was 12.5 µM.

And the TGI (BT-549 breast)?
The TGI was > 100 µM.

And the GI50 (NCI/ADR-RES ovarian)?
Its GI50 is > 100000 nM.

And the TGI (NCI/ADR-RES ovarian)?
The TGI was > 100 µM.

What does the source list for `Oc1c(I)cc(Cl)c2cccnc12`?
GI50 (BT-549 breast): 3.27 µM and 23.1 µM; TGI (BT-549 breast): 8.99 µM and 65.3 µM; GI50 (NCI/ADR-RES ovarian): 3210 nM and 4120 nM; TGI (NCI/ADR-RES ovarian): 36 µM and 45.7 µM

How did the GI50 (BT-549 breast) turn out when `CCN(CCNc1ccc(C)c2sc3cc(Cl)ccc3c(=O)c12)CC(C)(C)O` was run?
The GI50 was 18.7 µM.

And the TGI (BT-549 breast)?
Its TGI is > 100 µM.

What about the GI50 (NCI/ADR-RES ovarian) of the same compound?
The GI50 was 6370 nM.

And the TGI (NCI/ADR-RES ovarian)?
The TGI was 30.5 µM.

For `O=C(CN(/C=C/C(=O)C(F)(F)F)c1ccccc1)c1ccc(F)cc1`, which GI50 (BT-549 breast) is on record?
The GI50 was 31.5 µM.

And the TGI (BT-549 breast)?
The TGI was > 100 µM.

What about the GI50 (NCI/ADR-RES ovarian) of the same compound?
Its GI50 is 23600 nM.

What about the TGI (NCI/ADR-RES ovarian) of the same compound?
The TGI was 66 µM.

`C=CC[PH+](c1ccccc1)c1ccccc1.C=CC[PH+](c1ccccc1)c1ccccc1.[Pt+2].[S-]c1ncccn1.[S-]c1ncccn1` was tested. Which GI50 (BT-549 breast) did it give?
Its GI50 is 25.1 µM.

What about the TGI (BT-549 breast) of the same compound?
The TGI was > 100 µM.

And the GI50 (NCI/ADR-RES ovarian)?
Its GI50 is 22900 nM.

What about the TGI (NCI/ADR-RES ovarian) of the same compound?
The TGI was > 100 µM.

What does the source list for `COc1cc2c3c(n(CCCN4CCSCC4)c(=O)c2cc1OC)-c1cc2c(cc1C3=O)OCO2`?
GI50 (BT-549 breast): 56.7 µM; TGI (BT-549 breast): > 100 µM; GI50 (NCI/ADR-RES ovarian): > 100000 nM; TGI (NCI/ADR-RES ovarian): > 100 µM

With `Cc1ccccc1CNc1c2ccccc2nc2ccccc12` as the compound, how does the GI50 (BT-549 breast) read?
The GI50 was 2.18 µM.

And the TGI (BT-549 breast)?
The TGI was 6.15 µM.

What about the GI50 (NCI/ADR-RES ovarian) of the same compound?
Its GI50 is 2070 nM.

And the TGI (NCI/ADR-RES ovarian)?
Its TGI is 6.16 µM.

For `C=C(C)[C@@H]1CC[C@]2(C(=O)n3ccnc3)CC[C@]3(C)[C@H](CC[C@@H]4[C@@]5(C)CCCNC(C)(C)[C@@H]5CC[C@]43C)[C@@H]12`, which GI50 (NCI/ADR-RES ovarian) is on record?
The GI50 was 1700 nM.

And the TGI (NCI/ADR-RES ovarian)?
The TGI was 3.66 µM.

With `CCc1ccc(C2=NN(c3ccc(S(C)(=O)=O)cc3)C(=O)CC2)cc1` as the compound, how does the GI50 (BT-549 breast) read?
The GI50 was 0.513 µM.

And the TGI (BT-549 breast)?
The TGI was 16.3 µM.

And the GI50 (NCI/ADR-RES ovarian)?
Its GI50 is 416 nM.

And the TGI (NCI/ADR-RES ovarian)?
The TGI was 2.6 µM.

Which GI50 (BT-549 breast) does the source give for `O=C1c2ccccc2-c2c1c1ccc([N+](=O)[O-])cc1c(=O)n2CCCCl` here?
Its GI50 is 13.3 µM.

What about the TGI (BT-549 breast) of the same compound?
The TGI was > 100 µM.

And the GI50 (NCI/ADR-RES ovarian)?
The GI50 was 24100 nM.

What about the TGI (NCI/ADR-RES ovarian) of the same compound?
The TGI was > 100 µM.

How did the GI50 (BT-549 breast) turn out when `CN1CCOCCOCCOc2ccccc2NC(=O)c2nc(cnc2N)-c2ccc(cc2)S1(=O)=O` was run?
The GI50 was 7.77 µM.

What about the TGI (BT-549 breast) of the same compound?
Its TGI is > 100 µM.

What does the source list for `O=C(Nc1ccc(Br)cc1)Nc1cccc(Br)c1`?
GI50 (BT-549 breast): > 100 µM; TGI (BT-549 breast): > 100 µM

How did the GI50 (NCI/ADR-RES ovarian) turn out when `O=C1C2C(C(=O)N1CC[Se][Se]CCN1C(=O)C3C(C1=O)[C@H]1C=C[C@@H]3C1)[C@H]1C=C[C@@H]2C1` (stereo partly drawn) was run?
Its GI50 is 561 nM.

What about the TGI (NCI/ADR-RES ovarian) of the same compound?
Its TGI is 3.54 µM.

Which GI50 (BT-549 breast) does the source give for `Cc1ccc(NC(=O)c2ccc(NC3=C(Cl)C(=O)N(Cc4ccccc4)C3=O)cc2)cc1Cl` here?
The GI50 was 1.04 µM.

And the TGI (BT-549 breast)?
Its TGI is 5.09 µM.

What about the GI50 (NCI/ADR-RES ovarian) of the same compound?
The GI50 was 3780 nM.

And the TGI (NCI/ADR-RES ovarian)?
Its TGI is 21.7 µM.

`COc1cc(OC)c(/C=C/C(=O)c2c(N)cc(OC)cc2OC)c(OC)c1` was tested. Which GI50 (BT-549 breast) did it give?
Its GI50 is 31.7 µM.

What about the TGI (BT-549 breast) of the same compound?
Its TGI is > 100 µM.
